Test results taken from patent publication US12121518B2, “PARP-1 and methods of use thereof” (The Board of Supervisors of Louisiana State University and …, priority 2017, dated 2024).
“Also recorded” adds a separate entry of the source.

Legend:
CD3+ T cells = test: Proliferation of CD3/CD28-stimulated T cells in the absence of MDSCs; settings: 72 h, no MDSCs
Procedure: After 96 h, cells were collected and stained with antibodies to CD11b or Gr1 and assessed by FACS (A) or co-cultured with CD3/CD28-stimulated and CFSC-labeled WT CD3^+ T cells for 72 h followed by an assessment of proliferation by FACS (B).

[1] = system: APC^Min-induced tumor burden; test: APC^Min/+ spontaneous intestinal tumorigenesis mouse model; type: in vivo; settings: APC^Min/+ mice; for intestinal tumor burden: assessed at 16 weeks of age
Source text: If chronic inflammation is the sole mechanism by which PARP-1 participates in colon tumorigenesis, then the ability to severely block inflammation upon inhibition of the enzyme, pharmacologically or genetically, should almost entirely alleviate the tumor burden. According to the above data, however, this is not the case. […] In general, APC^Min/+ mice have a rather short lifespan and often die not only as a result of tumor burden but also due to development of severe anemia, substantial cachexia, and/or intestinal intussusceptions. To this end, C57BL/6 PARP-1^+/− and PARP-1^−/− mice were generated in the APC^Min/+ background (FIG. 39). PARP-1 heterozygosity provided remarkable protection against tumor development (FIG. 33A). […] Conversely, PARP-1 knockout promoted an increase in the number of small tumors.
Tumor models, assessment of tumor burden and adoptive transfer—For the azoxymethane/Dextran Sulfate Sodium (AOM/DSS)-induced tumorigenesis model, six to eight weeks old WT, PARP-1^+/− or PARP-1^−/− mice received a single dose (10 mg/kg) of AOM, i.p., followed by 4 cycles of 1.25% DSS provided in drinking water. Each cycle consisted of a week of DSS water separated by 2 weeks of regular water. […] At week 22 after the start of the experimental protocol, mice were sacrificed by CO2 asphyxiation. Colons, spleens, and blood were collected for analysis. Colons were opened longitudinally and washed with PBS to assess the tumor burdens using a dissecting microscope. For the APC^Min-mediated model, APC^Min/+, APC^Min/+PARP-1^+/−, or APC^Min/+PARP-1^−/− male mice were sacrificed at 16 weeks of age. […] Sacrificed mice were processed as described above except that the tumor burden was assessed along the whole intestinal track. Tumors were counted and divided in groups lower than 2 mm, 2-4 mm, and tumors bigger than 4 mm in diameter.
(§1) Tissue processing, immunohistochemistry, immunofluorescence and cytokines measurement—Some tissues were fixed in buffered formalin (10%), paraffin-embedded, then sectioned. Serial sections were subjected to H&E staining, immunohistochemistry (IHC) or immunofluorescence, as described (33), with antibodies to PCNA (Novusbio, Littleton, CO), COX-2 (Santa Cruz Biotechnology, Santa Cruz, CA), ICAM-1 (Santa Cruz Biotechnology), CD8 (Santa Cruz Biotechnology), or Gr1 (eBioscience, San Diego, USA) as previously described (34). Some of the sections were subjected to immunofluorescence with antibodies to CD8 or Gr1. Blood, collected by cardiac puncture, was run through a Microtainer Serum Separator tube (BD, Franklin Lake, NJ). The collected sera were immediately stored at −80° C. for future use and analysis. Cytokine levels were assessed for TNF-α (ELM-TNFα-1), IL-6 (ELM-IL-6-1), and MCP-1 (ELM-MCP1) by ELISA (all from RayBiotech, Norcross, GA) according to the manufacturer's instructions and recommendations.

MC-38 cell-based tumors = test: MC-38 cell-based syngeneic colon cancer mouse model; type: in vivo
Source text: Mice that received vehicle increased in size in a time-dependent manner and were sacrificed at day 16.
For the syngeneic tumor models, six to eight weeks old WT, PARP-1^+/−, or PARP-1^−/− mice were subcutaneously inoculated with 2.5×10^5 MC-38 cells. In some experiments, MC-38 cells transfected with p193-PGK-SB100X and pKT2PGK-BsdGFP_CLP-Luc plasmids (flanked by Sleeping Beauty transposons) and sorted by FACS. Selected cells were then engrafted onto mice as described above. When tumors became palpable (at day 4-6), WT mice were randomized and assigned to the different experimental groups. […] Tumor volumes were measured with a digital caliper or assessed using GFP/Luc-Biophotonic Imaging (Xenogen IVIS200, PerkinElmer, Boston, MA). Tumors were measured by the greatest longitudinal diameter (length) and the greatest transverse diameter (width) using a digital caliper. Tumor volumes were calculated using the following formula: tumor volume=(length×width^2)/2. For luciferase imaging, tumor-bearing mice received 150 mg/kg of D-luciferin potassium salt solution (PerkinElmer, Boston, MA) i.p. five minutes prior to anesthetic induction and imaging. Bioluminescence within a predetermined region of interest (ROI) on each mouse was quantified in photons/sec/cm^2/sr. At the end of the protocol (day 20-24), mice were sacrificed and tumors were harvested for further processing and analysis. For the adoptive transfer experiments, 3×10^6 BM-MDSCs derived from WT mice or vehicle were injected, intratumorally, into WT or PARP-1^+/− mice. The MDSCs were delivered at five injection sites at days 8 and 16 following engraftment of MC-38 cells.
as §1

O=C(c1cc(Cc2n[nH]c(=O)c3ccccc23)ccc1F)N1CCN(C(=O)C2CC2)CC1 [olaparib]
proliferation of T cells (CD3+ T cells; high concentration 5 μM): significant effects on T-cell proliferation
proliferation of T cells (CD3+ T cells; low concentration 4 nM): no effect on proliferation of T cells
proliferation of T cells (CD3+ T cells; moderate concentration 0.1 μM): significant effects on T-cell proliferation
intestinal tumor burden ([1]; 5 mg/kg i.p. twice a week): good protection against the tumor burden; also recorded: good protection against tumor development
intestinal tumor burden ([1]; 5 mg/kg i.p. twice a week, listed as Olaparib): reduces the tumor burden
intestinal tumor burden ([1]; 25 mg/kg i.p. twice a week): no protection against the burden; also recorded: no significant protection
systemic inflammation [1]: effective at blocking systemic inflammation
cachexia (body weight) ([1]; high dose (25 mg/kg)): did not
cachexia (body weight) ([1]; moderate dose (5 mg/kg)): protected against cachexia
tumor size (MC-38 cell-based tumors; 0.2 mg/kg, WT mice, from palpable tumors): barely increased above the size the tumors at the day 5; also recorded: more effective at reducing the tumor burden
tumor size (MC-38 cell-based tumors; 1 mg/kg, WT mice, from palpable tumors (day 6)): very effective at blocking tumor growth
tumor size (MC-38 cell-based tumors; 5 mg/kg, WT mice, from palpable tumors): relatively smaller than those of WT; also recorded: significant reduction in the size of MC-38 cell-based tumors
tumor progression (tumor volume) (MC-38 cell-based tumors; WT mice, olaparib 0.2 mg/kg on alternate days, anti-PD-1 100 μg/mouse every 4 days, alone or combined): significantly reduced the progression of MC-38 tumors
intratumoral ICAM-1 immunoreactivity as a surrogate for inflammation (MC-38 cell-based tumors; both doses (0.2 and 5 mg/kg)): reduction in inflammation
systemic inflammation (TNF-α, IL-6 and MCP-1 in sera) (MC-38 cell-based tumors; both doses (0.2 and 5 mg/kg)): moderately reduced
